Legend:
Settings in all cases: incubation time: 72 h
[1] = test system: BT-474; assay: normalised response (% of control), CellTox Green; higher = less cell death (100 = DMSO, 0 = benzethonium chloride kill control)
In short: (§1)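 Breast cancer cell lines, seeded at 20 µl suspension per well, were incubated for 72 h in 384-well plates containing compound at 5 concentrations. These concentrations rose in 10-fold steps over a 10,000-fold range set for each compound. CellTox Green fluorescence (485/520 nm) was read, then CellTiter-Glo luminescence after 10 min at room temperature, and each plate was normalised to 0.1 % DMSO (100) and a positive kill control (0). Values are normalised signals, each at one concentration.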

[2] = test system: BT-549; assay: as above
In short: as §1

[3] = test system: CAL-120; assay: as above
In short: as §1

[4] = test system: CAL-148; assay: as above
In short: as §1

[5] = test system: CAL-51; assay: as above
In short: as §1

[6] = test system: CAL-85-1; assay: as above
In short: as §1

[7] = test system: DU-4475; assay: as above
In short: as §1

[8] = test system: HCC1143; assay: as above
In short: as §1

[9] = test system: HCC1599; assay: as above
In short: as §1

[10] = test system: HCC1937; assay: as above
In short: as §1

[11] = test system: HDQ-P1; assay: as above
In short: as §1

[12] = test system: Hs578T; assay: as above
In short: as §1

[13] = test system: MCF-10A; assay: as above
In short: as §1

[14] = test system: MDA-MB-231; assay: as above
In short: as §1

[15] = test system: MDA-MB-436; assay: as above
In short: as §1

[16] = test system: MDA-MB-453; assay: as above
In short: as §1

[17] = test system: MFM-223; assay: as above
In short: as §1

[18] = test system: BT-474; assay: normalised response (% of control), CellTiter-Glo; higher = more viable cells (100 = DMSO, 0 = benzethonium chloride kill control)
Experimental: (§2)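 DSRT, 72 h incubation, CellTox Green / CellTiter-Glo readout. Signal is normalised to DMSO and benzethonium chloride controls. Value is the normalised response at dose 3.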

[19] = test system: BT-549; assay: as above
Experimental: as §2

[20] = test system: CAL-120; assay: as above
Experimental: as §2

[21] = test system: CAL-148; assay: as above
Experimental: as §2

[22] = test system: CAL-51; assay: as above
Experimental: as §2

[23] = test system: CAL-85-1; assay: as above
Experimental: as §2

[24] = test system: DU-4475; assay: as above
Experimental: as §2

[25] = test system: HCC1143; assay: as above
Experimental: as §2

[26] = test system: HCC1599; assay: as above
Experimental: as §2

[27] = test system: HCC1937; assay: as above
Experimental: as §2

[28] = test system: HDQ-P1; assay: as above
Experimental: as §2

[29] = test system: Hs578T; assay: as above
Experimental: as §2

[30] = test system: MCF-10A; assay: as above
Experimental: as §2

[31] = test system: MDA-MB-231; assay: as above
Experimental: as §2

[32] = test system: MDA-MB-436; assay: as above
Experimental: as §2

[33] = test system: MDA-MB-453; assay: as above
Experimental: as §2

[34] = test system: MDA-MB-468; assay: as above
Experimental: as §2

[35] = test system: MFM-223; assay: as above
Experimental: as §2

[36] = test system: SK-BR-3; assay: as above
Experimental: as §2

[37] = test system: MDA-MB-468; assay: normalised response (% of control), CellTox Green; higher = less cell death (100 = DMSO, 0 = benzethonium chloride kill control)
In short: as §1

Compound | normalised response [1] | normalised response [2] | normalised response [3] | normalised response [4] | normalised response [5] | normalised response [6] | normalised response [7] | normalised response [8] | normalised response [9] | normalised response [10] | normalised response [11] | normalised response [12] | normalised response [13] | normalised response [14] | normalised response [15] | normalised response [16] | normalised response [17] | normalised response [18] | normalised response [19] | normalised response [20] | normalised response [21] | normalised response [22] | normalised response [23] | normalised response [24] | normalised response [25] | normalised response [26] | normalised response [27] | normalised response [28] | normalised response [29] | normalised response [30] | normalised response [31] | normalised response [32] | normalised response [33] | normalised response [34] | normalised response [35] | normalised response [36] | normalised response [37]
O=C(Nc1c[nH]nc1-c1nc2ccc(CN3CCOCC3)cc2[nH]1)NC1CC1 [AT9283] (10 nM) | 102% | 105% | 97.7% | 106% | 61.2% | 102% | 101% | 108% | 115% | 123% | 115% | 89.3% | 91.8% | 98.2% | 103% | 103% | 53.1% | 93.8% | 94.1% | 103% | 105% | 67.3% | 94.8% | 101% | 109% | 95.2% | 98.1% | 101% | 101% | 96.9% | 100% | 105% | 97.1% | 96.6% | 98.2% | 93.5% | –
CO[C@@H](C(=O)N1Cc2[nH]nc(NC(=O)c3ccc(N4CCN(C)CC4)cc3)c2C1)c1ccccc1 [Danusertib] (100 nM) | 99% | 101% | 97.5% | 69.4% | 62.2% | 86.5% | 97.1% | 111% | 102% | 93.8% | 109% | 98.2% | 108% | – | 98.2% | 97.7% | 104% | 98.6% | 92.7% | 89% | 57.7% | 82.5% | 95.5% | 100% | 91.4% | 105% | 96.8% | 96.4% | 97% | 84.6% | 94.8% | 101% | 133% | 50.5% | 67.1% | 82.5% | 69.6%
O=S(=O)(c1cccc2cnccc12)N1CCCNCC1 [Fasudil] (500 nM) | 98.3% | 91.3% | 100% | 69.2% | 102% | 95.6% | 100% | 75% | 101% | 83.3% | 102% | 104% | 95% | 101% | – | 99.9% | 91.7% | 98.3% | 101% | 97.9% | 105% | 85.6% | 112% | 106% | 101% | 107% | 100% | 105% | 104% | 90.7% | 103% | 103% | 112% | 101% | 108% | 101% | 78.7%
Nc1cccc2c1CN(C1CCC(=O)NC1=O)C2=O (stereo unspecified) [Lenalidomide] (100 nM) | 101% | 99.6% | 97.4% | 104% | 76.4% | 101% | 101% | 92.4% | 107% | – | 100% | 109% | 77.9% | 105% | 107% | 100% | 107% | 103% | 103% | 93.3% | 105% | 69.2% | 100% | 104% | 99.1% | 111% | 95.3% | 102% | 101% | 99.3% | 94.3% | 93.2% | 103% | 111% | 103% | 98.4% | 102%
Nc1ccccc1NC(=O)c1ccc(CNc2nccc(-c3cccnc3)n2)cc1 [Mocetinostat] (100 nM) | 99.1% | 99.1% | 93.3% | – | 82% | 97.4% | 99.1% | 101% | 95.8% | – | 104% | 112% | 93.1% | 89.2% | 96.4% | 98.1% | 97.5% | 91.5% | 106% | 102% | 99% | 78.3% | 93.3% | 107% | 102% | 97.2% | 86.1% | 88.7% | 93.2% | 157% | 97.5% | 90.7% | 99.4% | 90.6% | 92.6% | 115% | 104%
Cc1ccc(Nc2nccc(N(C)c3ccc4c(C)n(C)nc4c3)n2)cc1S(N)(=O)=O [Pazopanib] (100 nM) | 96.2% | 98.1% | 95% | 96% | 104% | 103% | 101% | 98% | 112% | 66.2% | 109% | 107% | 72.7% | 100% | 94.2% | 97.4% | 104% | 107% | 102% | 95.9% | 112% | 96.7% | 104% | 100% | 105% | 103% | 99% | 101% | 103% | 97.3% | 98.7% | 103% | 108% | 104% | 103% | 100% | –
O=C(NC[C@H](O)CO)c1ccncc1Nc1ccc(I)cc1F [Pimasertib] (100 nM) | 98% | 59.3% | 96.5% | 107% | 107% | 91.4% | 69.4% | 99.8% | 118% | 101% | 104% | 113% | 98.9% | 59.1% | – | 99.4% | 107% | 81.9% | 103% | 92.4% | 90.4% | 73.7% | 82.4% | 4.09% | 94.7% | 85.2% | 89.2% | 67.1% | 88.9% | 41.7% | 83.5% | 97.5% | 112% | 95.3% | 103% | 94% | 108%

— the supplement of paper PMC4862054
